This is an account of results in patent US20080051451A1, “Autoimmune conditions and NADPH oxidase defects” (priority 2006, published 2008).

A short description of data set [1]: Arthritogenicity / arthritis effect (general statement). The settings on record: general statement in Example 3. In kind it is in vivo.
In data set [2] the test system is DA.Ncf1^DA rats. Kind of data set: Pristane induced arthritis (PIA) in DA.Ncf1^DA rats. In kind it is in vivo, Rat (Rattus norvegicus). The settings on record: for severity of PIA, therapeutic effect: 100 μl subcutaneous injections in the neck at day 8 and 10 after arthritis induction. The procedure: Treatments with compound 1 (phytol) or compound 5 (phytyl acetate) were administered to DA.Ncf1^DA rats as 100 μl subcutaneous injections in the neck at day 8 and 10 after arthritis induction (untreated control (◯), compound 1 (phytol) (♦) and compound 5 (phytyl acetate) (▴)) (FIG. 9).
Treatments with compound 2 (farnesol) or compound 4 (farnesylacetate) were administered to DA.Ncf1^DA rats as 100 μl subcutaneous injections in the neck at day 8 and 10 after arthritis induction, (untreated control (◯), compound 2 (farnesol) (▪) and compound 4 (farnesylacetate) (▴)) (FIG. 11).
Treatments with compound 1 (phytol), compound 6 (di-hydro-phytol, compound 5 (phytyl acetate), or compound 7 (di-hydro-phytyl acetate were administered to DA.Ncf1^DA rats as 100 μl subcutaneous injections in the neck at day 8 and 10 after arthritis induction, (untreated control (◯), compound 1 (phytol) (♦), compound 6 (di-hydro-phytol (▪), compound 5 (phytyl acetate) (▴) or compound 7 (di-hydro-phytyl acetate (●)) (FIG. 12).
Treatments of DA.Ncf1^DA rats with compound 1 (phytol) mixed in the food for continuous uptake compared with Omega3 fatty acids, (untreated control (◯), Omega3 fatty acid (□), phytol 1% daily (♦), phytol 1% every 2'nd day (▴), or phytol 1% initiated day 7 after arthritis induction (▪)) (FIG. 13).
Treatments of DA.Ncf1^DA rats with compound 5 (phytyl acetate) mixed in the food for daily uptake, (untreated control (◯), compound 1 (phytol) 1% daily (♦), or compound 5 (phytyl acetate) 1% daily (▴)) (FIG. 14).
Treatments with compound 1 (phytol) at 1.6 or 2.3 g/kg/day administered to DA.Ncf1^DA rats by oral gavage given by dosing every second day with compound 1 (phytol) […] (♦), compound 1 (phytol) […] (▴) or untreated control (◯).
Treatments of DA.Ncf1^DA rats with compound 1 (phytol) or compound 9 (isophytol) mixed in the food for continuous uptake compared with fenofibrate, (compound 1 (phytol) 500 mg/kg/day (♦), compound 9 (isophytol) 500 mg/kg/day (▴), or fenofibrate 100 mg/kg/day (□). Untreated control (◯).) (see FIG. 17).

Data set [3] concerns HL-60 cells. The data set can be described thus: Oxidative burst assay of granulocytes in vitro (isoluminol, extra-cellular ROS). As to conditions: HL-60 differentiated to granulocytes, 50 minutes, 37° C.
Method: The human myeloma cell line HL-60 (ATCC, CCI-240) was cultured in D-MEM (Gibco, Paisley, UK) complemented with 10% fetal calf serum and Penicillin-Streptomycin. […] Before assaying the cells were washed and resuspended in PBS to a concentration of 10^7 cells/ml.
Briefly, 5 μl of resuspended oils were added into 96-well plates containing 5×10^5 cells/well in a total volume of 200 μl PBS/well (final concentration isoluminol 50 μg/ml; Sigma Aldrich) and horse radish peroxidase (type II 2,5 U/ml; Sigma Aldrich). Samples were gently mixed and the data collection was initiated immediately. Extra-cellular ROS production was followed at 37° C. as produced luminescence signal (FluoStar Optima, BMG Labtechnologies, Offenburg, Germany) and presented as maximal relative signal during a measurement period of 50 minutes.
The cells were differentiated to granulocytes by culture in presence of 1,25% dimethylsulfoxide (DMSO; Sigma Aldrich Inc., Milwaukee, Wis.) for six days.

Entries after “also recorded” stand apart in the source; their conditions may differ.

For the compound `CC(C)=CCC/C(C)=C/CC/C(C)=C/CO` [compound 2, 3,7,11-Trimethyl-2,6,10-dodecatrien-1-ol], in data set [1], the arthritis ameliorating effects entry was “arthritis ameliorating effects” and the arthritogenicity entry is “non arthritogenic”. Besides, the “severity of PIA, therapeutic effect” value in data set [2] was “therapeutic effect”. For the same compound, the “Extra-cellular ROS production (maximal relative luminescence signal)” value in data set [3] is given as “strong ROS production”.

For the compound `CC(C)=CCC/C(C)=C/CC/C(C)=C/CC/C(C)=C/CO` [compound 3, 3,7,11,15-Tetramethyl-hexada-2,6,10,14-tetraen-1-ol], in data set [1], the arthritis ameliorating effects result is “arthritis ameliorating effects” and the arthritogenicity entry was “non arthritogenic”. In addition, the “Extra-cellular ROS production (maximal relative luminescence signal)” value in data set [3] was “strong ROS production”.

As to `CC(=O)OC/C=C(\C)CC/C=C(\C)CCC=C(C)C` [compound 4, Acetic acid 3,7,11-trimethyl-dodeca-2,6,10-trienyl ester], the “severity of PIA, therapeutic effect” value in data set [2] is given as “therapeutic effect comparable to the therapeutic effect of the un-derivatized compound 2”.

As to `CC(=O)OC/C=C(\C)CCCC(C)CCCC(C)CCCC(C)C` (stereo not drawn) [compound 5, Acetic acid 3,7,11,15-tetra-metyl-hexadec-2-enyl-ester], the “severity of PIA, therapeutic effect” value in data set [2] is “therapeutic effect comparable to the therapeutic effect of the un-derivatized compound 1; also recorded: therapeutic effects”. The “severity of PIA, oral administration in food 1% daily” value in data set [2] (mixed in the food for daily uptake, 1% daily) is reported as “equally effective as oral treatment with compound 1 (phytol) in reducing the severity of arthritis”.

Turning to `CC(C)CCCC(C)CCCC(C)CCCC(C)CCO` (stereo not drawn) [compound 6, 3,7,11,15-Tetramethyl-hexadecan-1-ol], in data set [2], the “severity of PIA, therapeutic effect” value is “therapeutic effect comparable to the therapeutic effects of compound 1 and compound 5”.

For the compound `CC(=O)OCCC(C)CCCC(C)CCCC(C)CCCC(C)C` (stereo not drawn) [compound 7, Acetic acid 3,7,11,15-tetramethyl-hexadecyl ester], the “severity of PIA, therapeutic effect” value in data set [2] was “therapeutic effect comparable to the therapeutic effects of compound 1 and compound 5”.

In the case of `C=CC(C)(O)CCCC(C)CCCC(C)CCCC(C)C` (stereo not drawn) [compound 9, 3,7,11,15-Tetramethyl-1-hexadecen-3-ol], the “severity of PIA, oral administration in food 500 mg/kg/day” value in data set [2] (mixed in the food for continuous uptake, 500 mg/kg/day) is recorded as “reduced the severity of arthritis”. For the same compound, in data set [3], the “Extra-cellular ROS production (maximal relative luminescence signal)” value was “strong ROS production”.

With `CC(C)OC(=O)C(C)(C)Oc1ccc(C(=O)c2ccc(Cl)cc2)cc1` [fenofibrate, propan-2-yl 2-[4-(4-chlorobenzoyl)phenoxy]-2-methyl-propanoate, reference compound], the “severity of PIA, oral fenofibrate 100 mg/kg/day” value in data set [2] (100 mg/kg/day) is recorded as “no effect on the severity of arthritis”.
